System: forearm skin
Experiment: Perception of cooling after applying aqueous ethanol solutions to the forearms of volunteers
Type: in vivo, human
From the text: A simple aqueous ethanol solution (50:50) containing 1% by weight of lactoyl ethanolamide was applied to one forearm. The aqueous ethanol solution alone (control) was then applied to the other forearm at a similar dosage, and the perception of cooling from either arm noted. This was repeated on 10 volunteers in total.
(§1) A simple aqueous ethanol solution (50:50) containing 0.2% by weight of L-menthol and 1% by weight of lactoyl ethanolamide was applied to one forearm at a concentration of 2 drops per 10 square centimetres of skin. The aqueous ethanol solution containing just 0.2% by weight L-menthol was then applied to the other forearm at the same dose, and the perception of cooling from either arm noted. This was repeated on 10 volunteers.
as §1, with “and 0.5%” for “and 1%”, “containing” for “containing just”, “arm noted over 4 hours at 30 minute intervals.” for “arm noted.”, “on 12” for “on 10”
as §1, with “containing 1%” for “containing 0.2%”, “of menthyl lactate” for “of L-menthol”, “containing 1%” for “containing just 0.2%”, “weight menthyl lactate” for “weight L-menthol”, “arm noted over 4 hours at 30 minute intervals.” for “arm noted.”, “on 12” for “on 10”
as §1, with “1.0%” for “0.2%”, “menthone glyceryl ketal” for “L-menthol”, “0.5%” for “1%”, “1%” for “just 0.2%”, “noted over 4 hours at 1 hour intervals.” for “noted.”
(§2) A simple aqueous ethanol solution (50:50) containing 0.75% by weight of menthyl glyceryl ether and 0.5% by weight of lactoyl ethanolamide was applied to one forearm at a concentration of 2 drops per 10 square centimetres of skin. An aqueous ethanol solution containing 1% by weight menthyl glyceryl ether was then applied to the other forearm at the same dose, and the perception of cooling from either arm noted over a 4 hour period. This was repeated on 12 volunteers.
as §2, with “1%” for “0.75%”, “pyrrolidone carboxylate” for “glyceryl ether”, “dose” for “dose,”, “6” for “4”, “33” for “12”

[1] = Example 7, 1% menthyl pyrrolidone carboxylate + 0.5% lactoyl ethanolamide vs 1% menthyl pyrrolidone carboxylate alone, 6 hour period, 33 volunteers

CC(C)[C@@H]1CC[C@@H](C)C[C@H]1O [L-menthol]
period of time over which cooling was felt (Example 3, 0.2% L-menthol with or without 0.5% lactoyl ethanolamide, noted over 4 hours at 30 minute intervals, 12 volunteers): about 2 hours

CC(O)C(=O)NCCO (stereo not shown) [lactoyl ethanolamide, N-lactoyl ethanolamide]
cooling perception versus placebo solution (Example 1, 1% by weight lactoyl ethanolamide in aqueous ethanol (50:50) vs aqueous ethanol alone, other forearm, 10 volunteers): no difference in cooling perception | cooling perception versus coolant alone (Example 2, 0.2% L-menthol + 1% lactoyl ethanolamide vs 0.2% L-menthol alone, 2 drops per 10 square centimetres, 10 volunteers): higher cooling perception | level of cooling versus coolant alone [1]: higher level of cooling | time for which the improved cooling perception was sustained [1]: at least 6 hours

CC1CCC(C(C)C)C2(C1)OCC(CO)O2 (stereo not shown) [menthone glyceryl ketal]
period of time over which cooling was felt (Example 5, 1% menthone glyceryl ketal with or without 0.5% lactoyl ethanolamide, noted over 4 hours at 1 hour intervals, 10 volunteers): about 3 hours

CC1CCC(C(C)C)C(OC(=O)C(C)O)C1 (stereo not shown) [menthyl lactate]
period of time over which cooling was felt (Example 4, 1% menthyl lactate with or without 1% lactoyl ethanolamide, noted over 4 hours at 30 minute intervals, 12 volunteers): about 2 hours

Reference: patent US8288441B2, “Compositions comprising a physiological coolant” (Givaudan Nederland Services B.V., priority 2007, dated 2012)
